From DBAASP
≈ marks a conversion by molar mass, not a printed value. Blank lines part the entries; values can stand above or below the compound they belong to.

Legend:
Experiment in all cases: ≥ marks a high value that may be exact or a test limit, other limits are often not marked, values filed in µg/mL are converted to µM
[1] = test system: Pseudomonas aeruginosa ATCC 15442
[2] = test system: Staphylococcus aureus ATCC 29213
[3] = test system: Enterococcus faecalis ATCC 29212
[4] = test system: Staphylococcus aureus USA 100
Bacillus cereus = test system: Bacillus cereus
Bacillus anthracis = test system: Bacillus anthracis
Staphylococcus aureus = test system: Staphylococcus aureus
Escherichia coli = test system: Escherichia coli
[5] = test system: Streptococcus pyogenes M1T1 5448
[6] = test system: Staphylococcus aureus USA 300
[7] = test system: Pseudomonas aeruginosa PAO1
Escherichia coli BL21 = test system: Escherichia coli BL21
[8] = test system: Staphylococcus aureus ATCC 25923
[9] = test system: Pseudomonas aeruginosa ATCC 27853
[10] = test system: Salmonella enterica subsp. enterica serovar Typhimurium ATCC 14028
[11] = test system: Klebsiella pneumoniae ATCC 13883
Bacillus subtilis = test system: Bacillus subtilis
[12] = test system: Streptococcus pyogenes ATCC 19615

Structure (SMILES): CC[C@H](C)[C@H](NC(=O)[C@@H](NC(=O)[C@H](C)NC(=O)[C@@H]1CCCN1C(=O)[C@H](Cc1ccccc1)NC(=O)[C@@H](NC(=O)[C@H](CCCCN)NC(=O)[C@H](CO)NC(=O)[C@H](C)NC(=O)[C@@H](NC(=O)[C@H](CCCN=C(N)N)NC(=O)[C@H](Cc1ccccc1)NC(=O)[C@H](CC(C)C)NC(=O)[C@H](C)NC(=O)CNC(=O)[C@@H](N)CC(C)C)C(C)C)C(C)C)C(C)C)C(=O)N[C@@H](CO)C(=O)N[C@@H](CCSC)C(=O)N[C@H](C(=O)N[C@@H](CCCCN)C(=O)O)C(C)C [LGALFRVASKVFPAVISMVK]
MIC (Bacillus cereus): 30 µM (≈ 64 µg/mL) | MIC (Bacillus anthracis): 30 µM (≈ 64 µg/mL) | MIC (Staphylococcus aureus): 30 µM (≈ 64 µg/mL) | MIC (Escherichia coli): 120 µM (≈ 256 µg/mL)

Structure (SMILES): CC[C@H](C)[C@H](NC(=O)[C@H](CC(C)C)NC(=O)[C@H](C)NC(=O)[C@@H]1CCCN1C(=O)[C@H](Cc1ccccc1)NC(=O)[C@@H](NC(=O)[C@H](CCCCN)NC(=O)[C@H](CO)NC(=O)[C@H](C)NC(=O)[C@@H](NC(=O)[C@H](CCCN=C(N)N)NC(=O)[C@H](Cc1ccccc1)NC(=O)[C@H](CC(C)C)NC(=O)[C@@H](N)Cc1ccccc1)C(C)C)C(C)C)C(=O)NCC(=O)N[C@@H](CCCCN)C(=O)N[C@@H](Cc1ccccc1)C(=O)N[C@@H](CCCCN)C(=O)N[C@@H](CCCCN)C(=O)N[C@@H](CCCCN)C(=O)O [FLFRVASKVFPALIGKFKKK]
MIC (Bacillus cereus): 6.88 µM (≈ 16 µg/mL) | MIC (Bacillus anthracis): 6.88 µM (≈ 16 µg/mL) | MIC (Staphylococcus aureus): 6.88 µM (≈ 16 µg/mL) | MIC (Escherichia coli): 27.5 µM (≈ 64 µg/mL)

The next lines start with the values.

MIC [1]: ≥ 78.9 µM | MIC [2]: 39.4 µM (≈ 64 µg/mL) | MIC [3]: 78.9 µM (≈ 128 µg/mL)
Structure (SMILES): CC[C@H](C)[C@H](NC(=O)[C@H](C)NC(=O)[C@@H](N)C(C)C)C(=O)N[C@@H](C)C(=O)N[C@@H](CC(C)C)C(=O)N[C@@H](CCCCN)C(=O)N[C@@H](C)C(=O)N[C@@H](C)C(=O)N[C@@H](C)C(=O)N[C@@H](Cc1ccc(O)cc1)C(=O)N[C@@H](Cc1cnc[nH]1)C(=O)N[C@H](C(=O)N[C@@H](Cc1cnc[nH]1)C(=O)N[C@@H](CCCCN)C(=O)N[C@@H](CCC(=O)O)C(=O)O)[C@@H](C)O [VAIALKAAAYHTHKE]

MIC [4]: ≥ 100 µM
Structure (SMILES): C[C@H](N)C(=O)N[C@@H](CCCN=C(N)N)C(=O)N[C@@H](C)C(=O)N[C@@H](CCCN=C(N)N)C(N)=O [ARAR]

MIC [5]: 4 µM (≈ 12.3 µg/mL) | MIC [6]: ≥ 128 µM | MIC [7]: 16 µM (≈ 49.3 µg/mL) | MIC (Escherichia coli BL21): 2 µM (≈ 6.17 µg/mL)
Structure (SMILES): CC[C@H](C)[C@H](NC(=O)[C@H](Cc1c[nH]c2ccccc12)NC(=O)[C@H](CCC(N)=O)NC(=O)[C@H](CCCN=C(N)N)NC(=O)CNC(=O)[C@H](C)N)C(=O)N[C@@H](C)C(=O)N[C@@H](CCCCN)C(=O)N[C@@H](Cc1ccc(O)cc1)C(=O)N[C@@H](CC(C)C)C(=O)N[C@@H](CCCN=C(N)N)C(=O)N[C@@H](CCCN=C(N)N)C(=O)N[C@@H](CCC(=O)O)C(=O)N[C@H](C(=O)N[C@@H](CCCN=C(N)N)C(=O)N[C@@H](CCCCN)C(=O)N[C@@H](CCCN=C(N)N)C(=O)NCC(=O)N[C@@H](CCCN=C(N)N)C(=O)N[C@@H](CCCCN)C(=O)N[C@@H](C)C(=O)N[C@H](C(=O)N[C@H](C(=O)N[C@@H](C)C(=O)N[C@@H](Cc1c[nH]c2ccccc12)C(=O)O)[C@@H](C)CC)C(C)C)[C@@H](C)CC [AGRQWIAKYLRREIRKRGRKAVIAW]

MIC [8]: > 100 µM | MIC [9]: > 100 µM | MIC [10]: > 100 µM | MIC [11]: ≥ 100 µM | MIC (Bacillus subtilis): ≥ 100 µM | MIC [3]: > 100 µM | MIC [12]: ≥ 100 µM | MIC (Escherichia coli): > 100 µM
Structure (SMILES): CC(C)C[C@H](NC(=O)[C@H](CCCN=C(N)N)NC(=O)[C@H](CO)NC(=O)[C@H](Cc1cnc[nH]1)NC(=O)[C@@H](N)CCCN=C(N)N)C(=O)N[C@@H](CCC(N)=O)C(=O)N[C@@H](CCCN=C(N)N)C(=O)N[C@@H](CCC(=O)O)C(=O)N1CCC[C@H]1C(=O)N[C@@H](CCC(N)=O)C(=O)N[C@H](C(=O)N[C@@H](CCC(N)=O)C(=O)N[C@@H](Cc1c[nH]c2ccccc12)C(=O)N[C@@H](CC(C)C)C(=O)N[C@@H](CCC(=O)O)C(=O)N[C@@H](CCC(N)=O)C(=O)N[C@@H](CCC(N)=O)C(=O)N[C@H](C(=O)N[C@@H](C)C(=O)N[C@@H](CCCCN)C(=O)N[C@@H](CCCN=C(N)N)C(=O)N[C@@H](CCCN=C(N)N)C(=O)N[C@H](C(=O)N[C@@H](CCCCN)C(=O)N[C@@H](CCCN=C(N)N)C(=O)O)[C@@H](C)O)C(C)C)C(C)C [RHSRLQREPQVQWLEQQVAKRRTKR]
